Reference: patent publication US6492128B1, “Drug screen targeting lipoprotein-membrane anchorage” (Ramot University Authority for Applied Research & …, priority 1997, dated 2002)
Values belong to the compound of their own block, whether it stands above or below them.

Columns and labels:
[1] = tested on: EJ cells; assay: Inhibition of EJ cells growth; type: cell-based, rat
[2] = molecular target: T1, oncogenic Ras in isolated EJ cell membranes (Homo sapiens, UniProt P01112, G12V); assay: Cell-free assay: dislodging of Ras from isolated EJ cell membranes; type: biochemical, rat; details: for Dislodging of Ras (% of control) in a cell free system (10 μM drug): isolated EJ cell membranes, Ras in pellet; for dislodging of Ras from isolated membrane: 10 μM
T1 construct: expressed in transfected cells; host or cells: Rat1 fibroblasts transformed with Ha-Ras (EJ cells)
Protocol: The cell-free assay is utilized in these next experiments; i.e. the effect of FTS on Ras in isolated membranes was investigated. Briefly, we used EJ cell membranes (total particulate fraction) prepared in homogenization buffer (10 mM Tris-HCl, pH 8.5, 0.32 M sucrose) with protease inhibitors. The membranes were stored in aliquot at −70° C. and thawed prior to use. In a standard assay, membranes containing 15 μg of protein are incubated in a total volume of 100 μl of homogenization buffer with or without drug for 60 min at 37° C. The drugs are prepared freshly in 100% DMSO, and diluted with 50 mM Tris-HCl pH 8.5 to yield 5× drug concentration in 10% DMSO. It is important to prepare these solutions at room temperature, otherwise the drugs may precipitate. The drug solutions (20 μl) are pipetted into the assay tubes, the membrane/buffer mixtures (80 μl) are quickly added, the tubes are gently mixed, and the tubes are transferred to a 37° C. shaking water bath. The reactions are stopped by addition of 900 μl of cold homogenization buffer (without sucrose) containing 10 μg BSA. Following a 5 min incubation at room temperature, the membranes are pelleted by centrifugation in a benchtop microfuge (14,000 rpm). The supernatants are removed and the pellets are subjected to mini-SDS-PAGE followed by Immunoblotting (pan anti-Ras antibodies) and ECL assays. These assays are detailed infra. It is considered preferable to perform the reactions at 25-37° C. and to use relatively small amounts of membrane protein in the assay. Another preference is to dilute the membranes in a solution containing BSA at the end of the reaction period.

[3] = tested on: normal Ras in Rat1 cells; assay: Ras (total and particulate) in Rat1 cells; type: cell-based, rat
Protocol: In experiments where the total amount of Ras was estimated, the cells were homogenized as detailed above and samples of the total cell-homogenate (15 μg protein) were loaded onto the gel. For immunoblotting, we have also used the pan-Ras Ab (Calbiochem) at a 1:2000 dilution, and anti-mouse IgG-HRP at a 1:7500 dilution. To develop, the blots were exposed to ECL. The same immunoblotting procedure was also used in the cell-free system experiments. The effect of FTS on total Ras in Rat1 cells (Rat1 cells have normal rather than oncogenic Ras) was also examined using the same procedures and conditions as that used for EJ cells in FIGS. 5A & 5B. […] However, dislodging normal Ras in Rat1 cells required 50 μM FTS whereas the oncogenic Ras found in EJ cell is dislodged at lower concentrations of the drug (FIG. 5A). Thus, FTS may have some selectivity towards the activated forms of Ras. This may account for the fact that FTS is not toxic at doses that inhibit the growth of Ras dependent cells and tumors (see toxicology section below.)

[4] = molecular target: T2, oncogenic Ras in EJ cells (Homo sapiens, UniProt P01112, G12V); assay: Dislodging of Ras from membranes in intact EJ cells (particulate/cytosolic fractions, immunoblot); type: cell-based, rat
T2 construct: expressed in transfected cells; host or cells: Rat1 fibroblasts transformed with Ha-Ras (EJ cells)
Protocol: Ha-Ras transformed Rat1 cells (EJ cells) were plated at a density of 4×10^6 cells/10 cm dish. After 3 hr the cells were treated for 15 hr (dose response) or for 2, 6, 12, or 24 hr (time course) with FTS (0-50 μM, dose response) or (25 μM, time course) or (0.1% DMSO, control). The cells were then detached from the dishes and washed in phosphate-buffered saline (PBS). All the subsequent procedures were carried out at 4° C. The cell pellets were homogenized in […] of homogenization buffer 20 mM Tris-HCl, pH=7.6) leupeptine (5 μg/ml), pepstatine (5 μg/ml), benzamidine (1 μM), phenylmethyl-sulphonyl fluoride (1 mM), aprotinine (5 units/ml), and MgCI2 (10 mM). Total cell membranes (P100) and cytosol (S100) were obtained by a 100,000×g centrifugation step (30 min). Following resuspension of the P100 in 750 μl of homogenization buffer, both S100 and P100 received 75 μl of 10×immunoprecipitation buffer (100 mM Tris-HCl, pH=7.5, 1.5 M NaCl, 10% Triton X-100). Samples were frozen for 1 hr at −70° C. and then thawed. Insoluble material was removed by a 10 min 10,000×g spin and the clear supernatant was used for immunoprecipitation. Samples containing 500 μg protein of P100 and the equivalent amount of S100 protein, were incubated for 12 hr with 2 μg of Y13-259 antibodies coupled to agarose bends (Oncogene Science). The beads were then precipitated and washed four times with 1 ml of immunoprecipitation buffer, twice with 1 ml of 20 mM Tris-HCl, pH=7.6, and then resuspended in 20 μl of SDS-sample buffer. Proteins were then separated by 12.5% SDS-PAGE (mini gels) and blotted onto nitrocellulose paper. The paper was blocked with 10% skimmed milk in tris-buffered saline and then incubated for 7 hr with rabbit anti-Ras serum diluted 1:1000 with tris buffered saline containing 10 mg/ml bovine serum albumin and 0.05% tween-20 (anti-Ras antiserum was prepared by immunizing rabbits with recombinant human-Ha-Ras (Marom et al.). Immunoblots were then incubated for 1 hr with 1:5000 dilution of goat anti-rabbit IgG-horseradish peroxidase (HRP) conjugate (Sigma) and developed by exposing to ECL.
Here, EJ cells were plated at a density of 4×10^6 cells/10 cm dish. The plated cells were cultured for 3 hours and then received new media containing 0.1% DMSO with or without 25 μM FTS. The cells were further cultured for 2, 4, 12, or 24 hours before harvesting and fractionation into particulate and cytosolic fractions. Ras proteins were immunoprecipitated from the fractions, subjected to SDS-PAGE, immunoblotted and developed with ECL as described in the methods, supra. The density of the bands produced from the particulate fraction (FIG. 3A) and the cytosolic fraction (FIG. 3B) was measured with a scanning densitometer. The data obtained from the densitometric analysis are presented in FIG. 3C as the ratio of values of test (FTS treated) over control (DMSO only) cells. The mean values of three separate experiments are shown.
Referring to FIGS. 4A and 4B, the effect of FTS in dislodging Ras from EJ cell membranes was investigated for dose dependence. Here, Ras protein concentration was determined in the particulate fraction of EJ cells that were exposed to the indicated concentrations of FTS (0-50 μM) and AFC (50 μM) for 15 hours as detailed for FIG. 3, supra. The densitometric analysis of the immunoblot bands shown in FIG. 4A are presented in FIG. 4B as mean % of control of three experiments.

[5] = Toxicity / cytotoxicity of FTS
[6] = tested on: total oncogenic Ras in EJ cells; assay: Total cellular Ras in EJ cells (immunoblot of total homogenate); type: cell-based, rat; details: 15 hours, total cell homogenate; read-out: EC50 for decrease in the total amount of Ras in EJ cells
Protocol: In experiments where the total amount of Ras was estimated, the cells were homogenized as detailed above and samples of the total cell-homogenate (15 μg protein) were loaded onto the gel. For immunoblotting, we have also used the pan-Ras Ab (Calbiochem) at a 1:2000 dilution, and anti-mouse IgG-HRP at a 1:7500 dilution. To develop, the blots were exposed to ECL. The same immunoblotting procedure was also used in the cell-free system experiments. If Ras is degraded after it is dislodged, total cellular Ras should fall after FTS treatment. To investigate this, EJ cells were incubated for 15 hours, with various concentrations of FTS as detailed in FIG. 3, supra, then homogenized and total cell Ras measured by immunoblot assay. FTS caused a dose dependent decrease in the total amount of Ras in treated EJ cells. Densitometric analysis of data, such as that of FIG. 5A, is presented in FIG. 5B as the mean percent of control of 3 experiments. The EC5O was 15 μM (FIG. 5B), which is similar to that determined for the effect of FTS on particulate Ras.

[7] = tested on: Erb B2 and Ha-Ras-transformed cells; details: cited from earlier work
[8] = tested on: Ras; details: cited from earlier work
[9] = FTS 5-50 μM; cited from earlier work
[10] = tested on: G protein β (Gβ) in EJ cell membranes; assay: Immunoblotting of Gβ in EJ cell membranes; type: cell-based, rat; details: same conditions as for Ras detection
Protocol: The level of G protein β (Gβ) was determined in membranes of EJ cells that were grown in the absence and in the presence of FTS in the same conditions that were used for Ras detection. A sample of 25 μg membrane proteins were separated by SDS-PAGE (12.5%), and blotted to nitrocellulose paper. Immunoblots were performed by using rabbit anti Gβ antibodies (dilution of 1:1000) as a first antibody and goat anti rabbit IgG HRP (Sigma) as a second antibody (dilution of 1:5000). To develop, the blots were exposed to ECL.

[11] = tested on: v-raf or T-antigen transformed cells; details: cited from earlier work

Structure (SMILES): CC(C)=CCC/C(C)=C/CC/C(C)=C/CSc1c(Cl)cccc1C(=O)O [3-CI-FTS]
- EC50 ([1]; EJ cells): > 50 µM
- Dislodging of Ras (% of control) in a cell free system (10 μM drug) [2]: 109 % of control
- dislodging of Ras from isolated membrane ([2]; cell free): did not dislodge Ras

Structure (SMILES): CC(C)=CCCC(C)=CCCC(C)=CCSc1cc(Cl)ccc1C(=O)O [4-Cl-FTS]
- EC50 ([1]; EJ cells): 28 ± 3 µM
- Dislodging of Ras (% of control) in a cell free system (10 μM drug) [2]: 85 % of control

Structure (SMILES): CC(C)=CCC/C(C)=C/CC/C(C)=C/CSc1ccc(Cl)cc1C(=O)O [5-Cl-FTS]
- EC50 ([1]; EJ cells): 8.5 ± 2.4 µM
- Dislodging of Ras (% of control) in a cell free system (10 μM drug) [2]: 87 % of control

Now from value to compound, other results behind:

- Dislodging of Ras (% of control) in a cell free system (10 μM drug) [2]: 110 % of control
- dislodging of Ras from isolated membrane ([2]; cell free): did not dislodge Ras
Structure (SMILES): COC(=O)c1ccccc1SCC=C(C)CCC=C(C)CCC=C(C)C [FMTS, carboxymethyl FTS]
- Inhibition of EJ cells Growth EC50 (μM) ([1]; EJ cells): Not active at 50 μM

- cytosolic Ras after exposure ([4]; FTS 25 μM, 2 to 6 hours after exposure, transient): significant increase in cytosolic Ras
- decrease in the amount of particulate Ras versus control levels ([4]; FTS 25 μM, after 24 hours, EJ cells, densitometry, 3 experiments): 80%
- concentration range that will produce maximal displacement of Ras ([4]; cell membranes): 10 to 50 µM
- concentrations required to dislodge Ras from cell membranes ([4]; cell membranes): < 25 µM
- EC50 ([4]; intact EJ cells, 15 hours, 0-50 μM, read-out: EC50 for dislodging Ras from EJ cell membranes (particulate Ras)): ~10 µM
- EC50 [6]: 15 µM
- Dislodging of Ras (% of control) in a cell free system (10 μM drug) [2]: 56 % of control
- EC50 ([2]; cell free, 60 min at 37° C.): 10 to 15 µM
Structure (SMILES): CC(C)=CCCC(C)=CCCC(C)=CCSc1ccccc1C(=O)O [FTS, Farnesylthiosalicylic acid]
- concentration required for dislodging normal Ras in Rat1 cells ([3]; particulate Ras, Rat1 cells): 50 µM
- effect on total Ras in Rat1 cells ([3]; same conditions as EJ cells, dose response shifted to the right): significant decrease in Ras
- toxicity at doses that inhibit the growth of Ras dependent cells and tumors [5]: not toxic
- EC50 ([1]; Rattus norvegicus, EJ): 7.5 ± 3.7 µM
- concentration range of dose-dependent growth inhibition [7]: 1-25 μm
- inhibition of farnesylation or methylation of Ras in intact cells [8]: does not inhibit farnesylation or methylation of Ras
- cytotoxicity at growth-inhibiting concentrations [9]: without producing cytotoxicity
- amount of Gβ associated with EJ cell membranes [10]: did not reduce the amount of Gβ
- effect on growth of v-raf or T-antigen transformed cells [11]: does not affect the growth

- Dislodging of Ras (% of control) in a cell free system (10 μM drug) [2]: 100 % of control
- dislodging of Ras from isolated membrane ([2]; cell free): did not dislodge Ras
Structure (SMILES): CC(C)=CCC/C(C)=C/CSc1ccccc1C(=O)O [GTS, geranyl thiosalicylic acid]
- Inhibition of EJ cells Growth EC50 (μM) ([1]; EJ cells): Not active at 50 μM
